Results reported in patent US7235299B2, “Beads of a phenolic compound and a method of obtaining same” (Rhodia Chimie, priority 2002, dated 2007).

Legend:
[1] = methyl methacrylate at 20° C.
[2] = acrylic acid at 20° C.

dissolution time in methyl methacrylate [1]: 3 min
dissolution time in acrylic acid [2]: 10 min
Structure (SMILES): Oc1ccc(O)cc1 [crystalline hydroquinone, hydroquinone]
